Measured values reported in publication PMC8706149 (International Journal of Molecular Sciences, 2021).
Values after ≈ are worked out from the molar mass of the structure shown. Where two headings read alike, the source gives them in different places. Marks after values point to notes of the source that are not given here. Bridge positions count the residues as written; N and C are the ends. Square brackets hold non-standard residues; d marks the D form. Peptide text beside a SMILES is read from it. * marks the point of attachment. X1 = CC[C@H](C)CCCCC(=O)*; Dab = NCC[C@H](N)C(=O)O

Experiments:
[1] = test system: Bacillus globigii TNO BMO13; experiment: MIC, broth microdilution; format: cell-based; conditions: Bacillus subtilis, TNOBMO13, read-out: MIC (µg/mL) Bacillus globigii TNO BMO13
Method: (§1) All the labeled peptide after purification were lyophilized and dissolved in water. Purity was veri-fi e d by RP-HPLC on C18 column . Pepti de i dentity was assessed by mass spectrometry anal yses (Supplementary Methods, section S4; Table S1).
(§2) S6. Antimicrobial activity assay
(§3) MIC (Minimum Inhibitory Concentration) analyses were performed by broth microdilution method for antimicrobial peptides previously described wi th mi nor modi ficati ons. In detai l s, assays were carried out in Nutrient Broth 0.5x (Difco, Detroit, MI, US A ) usi ng st e r i le 96-well polypropylene mi-croti ter pl ates (cat. 3879, C ostar C orp., C ambri dge, MA , US A ). Bacterial strains were grown in Luria-Bertani (LB) medium overnight at 37°C and then diluted in Nutrient Broth at a final concentration of ~5x10^5 CFU/mL per well. Twofold serial dilutions of peptides were carried out in the test wells […]
(§4) Plates were incubated overnight at 37°C. MIC value was taken as the lowest concentration at which growth was inhibited. Three independent experiments we r e performed for each MIC value. […] MIC values were measured on Gram-negative ( E scherichia coli ATCC 25922) and Gram-po si t i ve st r ains (Sta phyl o co ccus a ure us ATCC 6538P and Bacillus globigii TNO BMO13) . […]

[2] = Photostability under constant excitation; format: physicochemical; conditions: 60 min constant excitation at maximum absorption (Figure S3)
Text: As comparative control, we used the very photostable fluorophore PyMPO [33] by treating PyMPO-(C)GKY20 in the same conditions.

[3] = cited from earlier work; for pKa of the phenolic group of luciferin: ground state
Text: Excited states are indicated by an asterisk. (C) Condensation reaction between 6-substituted 2-cyanobenzothiazoles and cysteine (free or as N-terminal residue of a peptide). R1 and R2 can be a wide variety of alkyl and acyl groups.

[4] = test system: Escherichia coli ATCC 25922; format: cell-based; conditions: positive control antibiotic; Nutrient Broth 0.5x, overnight 37°C
Method: as §1, §2, §3, §4

Compound: CN[C@H](CC(C)C)C(=O)N[C@H]1C(=O)N[C@@H](CC(N)=O)C(=O)N[C@H]2C(=O)N[C@H]3C(=O)N[C@H](C(=O)N[C@H](C(=O)O)c4cc(O)cc(O)c4-c4cc3ccc4O)[C@H](O)c3ccc(c(Cl)c3)Oc3cc2cc(c3O[C@@H]2O[C@H](CO)[C@@H](O)[C@H](O)[C@H]2O[C@H]2C[C@](C)(N)[C@H](O)[C@H](C)O2)Oc2ccc(cc2Cl)[C@H]1O [Vancomycin, vancomycin]
- MIC [1]: 2 µg/mL (≈ 1.38 µM)

Compound: 1-[2-(maleimido)ethyl]-4-[5-(4-methoxyphenyl)-2-oxazolyl]pyridinium-labeled GKY20 [PyMPO-(C)GKY20]
- loss of initial fluorescence [2]: 43%

Compound: O=C(O)[C@H]1CSC(c2nc3ccc(O)cc3s2)=N1 [Free Luc, luciferin]
- pKa of the phenolic group of luciferin [3]: 8.70 ^b
- pKa of the phenolic group of luciferin ([3]; listed as LUC-OH): 8.7
- pKa of the phenolic group of luciferin ([3]; listed as Luc): ≈ 8.7
- pKa of light-induced dissociation (excited state) of luciferin ([3]; photoacid, excited state): < 1

Compound: CC[C@H](C)CCCCC(=O)N[C@@H](CCN)C(=O)N[C@H](C(=O)N[C@@H](CCN)C(=O)N[C@H]1CCNC(=O)[C@H]([C@@H](C)O)NC(=O)[C@H](CCN)NC(=O)[C@H](CCN)NC(=O)[C@H](CC(C)C)NC(=O)[C@@H](Cc2ccccc2)NC(=O)[C@H](CCN)NC1=O)[C@@H](C)O [Polymyxin B, polymyxin B] (X1-[Dab]T[Dab][Dab][Dab][dF]L[Dab][Dab]T; lactam 4-C (inferred); N-terminus assumed)
- MIC (µg/mL) Escherichia coli 25922 ATCC [4]: 0.5 µg/mL (≈ 0.415 µM)
